Measurements as given in patent publication US6350747B1, “3-(anilinomethylene) oxindoles” (Glaxo Wellcome Inc., priority 1999, dated 2002).
Like-named read-outs stand apart in the source and are kept apart here.

What was measured:
[1] = tested on: HUVEC cells; test: HUVEC BrdU incorporation, bFGF stimulation; type: cell-based; details: Homo sapiens, 0.3 ng/ml bFGF, 72 hrs, read-out: Inhibition of BrdU incorporation in HUVEC cells, BFGF Stimulation, IC50
From the text: (§1) An assay to measure this effect involves measurement of the inhibition of bromo-deoxy uridine (BrdU) incorporation (evidence of DNA synthesis) in human umbilical vein endothelial cells (HUVECs).
(§2) HUVEC cells and EGM (Endothelial cell growth medium) were purchased from Clonetics (San Diego, CA). VEGF and bFGF were purchased from Genzyme. M199 medium (Gibco BRL) with BSA (Sigma) was used for cell culture in Type I collagen coated plates (Becton Dickinson). The degree of BrdU incorporation was measured using a commercial colorimetric ELISA assay from Boehringer Mannheim.
(§3) HUVECs were plated at a density of 2500 cells per well in M199 medium containing 5% FBS (Hyclone) in a Type-1 Collagen coated plate. The plate was incubated at 37° C. overnight. The medium was removed by aspiration, and test compounds were added to each well in a volume of 0.1 ml per well in serum-free M199 medium. […] The plate was incubated for 30 min at 37° C. Another 0.1 ml of serum-free M199 medium containing BSA and VEGF (or bFGF) was added to give a final concentration of 0.1% BSA and 20 ng/ml VEGF (0.3 ng/ml bFGF). The plate was incubated at 37° C. for 72 hrs. BrdU was added to each well after the first 48 hrs to give a concentration of 10 micomolar. The colorimetric ELISA assay was performed according to manufacturer's instructions, with detection by absorbance reading at 450 nm.

[2] = target: T1, CDK2 (Homo sapiens, UniProt P24941); test: CDK2 cyclin dependent protein kinase assay; type: biochemical; details: read-out: CDK2 kinase inhibition IC50
T1 construct: made in house
Protocol: Cyclin dependent protein kinase assays utilized the peptides Biotin-aminohexyl-[…] and Biotin-aminohexyl-[…]-NH2 as phosphoryl group acceptors. CDK1 and CDK2 were both expressed utilizing a baculovirus expression system and were partially purified to comprise 20-80% of total protein, with no detectable competing reactions present. Typically, assays were performed by incubating either enzyme (0.2-10 nM), with and without inhibitor, one of the two peptide substrates ([…]), [γ-^32P]ATP ([…]), and 10-20 mM Mg^2+ for periods of time generally within the range 10-120 min. Reactions were terminated with 0.2-2 volumes of either 20% acetic acid or 50-100 mM EDTA buffered to pH 7 (substrate consumption<20%). The buffer employed in enzyme assays was either 30 mM HEPES 7.4 containing 0.15 M NaCl and 5% DMSO, the buffer 50 mM MOPS 7.0 containing 0.15 M NaCl and 5% DMSO, or the buffer 100 mM HEPES pH 7.5 containing 0.1 mg/mL BSA and 5% DMSO. Inhibitors were diluted in 100% DMSO prior to addition into the assay. Detection of peptide phosphorylation was accomplished by scintillation counting following either collection of peptide onto phosphocellulose filters (for reactions stopped with acetic acid), collection of peptide in wells of 96 well plates coated with Streptavidin (Pierce) (reactions were stopped with EDTA), or addition of Avidin coated Scintillant impregnated beads (Scintillation Proximity Assays from Amersham, reactions were stopped with EDTA).

[3] = target: T2, Tie-2 (Homo sapiens, UniProt Q02763); test: Tie-2 substrate phosphorylation assay; type: biochemical
T2 construct: The kinase domain of the enzyme was purified to homogeneity from a baculovirus expression system; made in house
Protocol: The peptide substrate used in the Tie-2 assay was biotin-aminohexyl-[sequence]amide. The kinase domain of the enzyme was purified to homogeneity from a baculovirus expression system. The enzyme was diluted to 10 nM into a 60 μl reaction containing 100 mM HEPES, pH 7.5, 500 μM ATP, 10 mM MgCl2, 2 μM peptide, 1 mM DTT, 0.05 mg/ml BSA, and an inhibitor at varying concentrations. The controls were reactions in the presence (negative controls) or absence (positive controls) of 50 mM EDTA. Reactions were incubated for 30 min at room temperature, and then quenched by stopped by 80 μl, of 0.15 M EDTA. […] The neutravidin plates were then washed with water for 5 times. Europium conjugated anti-phosphotyrosine antibody, (EG & G Wallac, #CR04-100) (1 mg/ml) was diluted 1:10,000 in 1%BSA-0.05% Tween 20-TBS, and 150 μl of the diluted antibody was added to each well of the neutravidin plate, so the phosphorylated peptide was bound with the Europium labelled antibody. After another 30-60 min incubation at room temperature, the plates were washed again with water for 5 times. 150 ul of Enhancemant solution was then added to each well, dissociating Eu^3+ from solid phase bound antibodies to form a homogeneous and highly fluorescent Eu-(2-NTA)3(TOPO)2-3 micellar chelate solution.
The kinase activity of all wells was calculated as %S, the percentage of the fluorescent counts vs. positive controls after substraction of negative controls, as in eq.
Plots of compound concentration versus %S were constructed.
%S=%Smax*(1−(X/(K+X)))+Y2 (2)

[4] = target: T3, VEGFR-2 (Homo sapiens, UniProt P35968); test: VEGFR-2 substrate phosphorylation assay; type: biochemical
T3 construct: The kinase domain of the enzyme was purified to homogeneity from a baculovirus expression system; made in house
Protocol: Substrate phosphorylation assays were carried out as follows:
The kinase domain of the enzyme was purified to homogeneity from a baculovirus expression system. The enzyme was preactivated on ice for 15 min in the presence of 100 μM ATP and 20 mM MgCl2, and stored at −80° C. until needed for assay. The activated enzyme was diluted to 0.4 nM into a 60 μl reaction containing 100 mM HEPES, pH 7.5, 5 μM ATP, 10 mM MgCl2, 5 μM peptide, 0.1 mM DTT, 0.05 mg/ml BSA, and an inhibitor at varying concentrations. The controls were reactions in the presence (negative controls) or absence (positive controls) of 50 mM EDTA. Reactions were incubated for 30 min at room temperature, and then quenched by the addition of EDTA to 60 mM in 210 μl . The quenched samples (190 μl) were transferred to a neutravidin-coated plate (Pierce) and incubated at room temperature for 40 min to allow biotinylated peptide to bind to the neutravidin. The unbound components of the reaction were removed by washing with a plate washer, then 200 μl HRP-PY20 anti-phosphotyrosine antibody conjugate was added to each well. After incubation for 40 min, the plate was washed to remove any unbound anitbody. A HRP substrate, K-blue (Neogen) was added and the reaction was quenched with Red Stop (Neogen) after 20 min. The absorbance of the wells was read at A650 in a plate reader. IC50 values were obtained by fitting raw data to A650=VMAX*(1−[I]/IC50+[I])))+b, where b is background.

[5] = target: T4, c-fms (Homo sapiens, UniProt P07333); test: c-fms protein kinase assay; type: biochemical; details: read-out: c-fms kinase inhibition IC50
T4 construct: The c-fms intracellular domain was expressed from a baculovirus expression system, as an amino-terminal GST fusion protein; GST (N); made in house
T4 sequence (P07333 539-972 limits assumed): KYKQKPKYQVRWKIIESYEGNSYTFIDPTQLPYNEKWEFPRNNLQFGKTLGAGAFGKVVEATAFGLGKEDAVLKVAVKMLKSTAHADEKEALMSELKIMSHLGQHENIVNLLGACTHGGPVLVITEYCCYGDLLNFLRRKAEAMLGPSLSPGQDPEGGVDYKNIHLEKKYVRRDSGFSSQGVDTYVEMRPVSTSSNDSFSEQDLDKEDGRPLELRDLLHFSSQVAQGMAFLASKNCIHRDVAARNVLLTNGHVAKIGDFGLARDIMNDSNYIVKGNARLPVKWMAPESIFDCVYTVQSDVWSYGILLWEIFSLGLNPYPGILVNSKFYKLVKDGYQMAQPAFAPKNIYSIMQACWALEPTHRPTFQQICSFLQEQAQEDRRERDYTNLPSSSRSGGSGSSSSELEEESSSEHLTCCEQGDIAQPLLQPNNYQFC
Protocol: c-fms protein kinase assays utilized the peptide substrate, biotin-EAl[…]-NH2, as the phosphoryl group acceptor. The c-fms intracellular domain was expressed from a baculovirus expression system, as an amino-terminal GST fusion protein, and purified to homogeneity using Glutathione agarose from Sigma Chemical Co. Maximum activation of the enzyme was achieved by preactivation at room temperature for 120 min in the presence of 100 μM ATP and 15 mM MgCl2. This enzyme stock was diluted to 150 nM prior to using in the assay. Typically assays were performed in white, opaque, 96-well plates in a 45 ul assay volume including 15 ul 6% DMSO, with or without compounds, 15 ul of the preactivated, diluted enzyme, and 15 ul of a substrate mixture. Reactions contained 50 mM HEPES, pH 7.5, 1.7 μM ATP, 15 mM MgCl2, […] peptide, 2.5 μM DTT, 50 mM NaCl and 0.15 uCi/assay [^32P]ATP. The controls were reactions in the presence (negative controls) or absence (positive controls) of 50 mM EDTA. Reactions were allowed to proceed for 90 min at room temperature. The reaction products were quantified using Scintillation Proximity technolgy. The reactions were quenched by the addition of 200 ul of a solution containing 0.3 mg streptavidin SPA beads from Amersham, 50 mM EDTA, 0.1% TX-100, 50 uM ATP, in PBS, pH7.2 (phosphate buffered solution). Plates were sealed and counted in a Packard Topcount scintillation counter. IC50 values were obtained by fitting raw data to the equation y=Vmax*(1−(x/(k+x))).

[6] = tested on: HUVEC cells; test: HUVEC BrdU incorporation, VEGF stimulation; type: cell-based; details: Homo sapiens, 20 ng/ml VEGF, 72 hrs, read-out: Inhibition of BrdU incorporation in HUVEC cells, VEGF stimulation, IC50
From the text: as §1, §2, §3

[7] = read-out: Tie-2 kinase inhibition IC50
[8] = read-out: VEGFR2 kinase inhibition IC50

T2 sequence (Q02763 824-1096 limits assumed, species assumed): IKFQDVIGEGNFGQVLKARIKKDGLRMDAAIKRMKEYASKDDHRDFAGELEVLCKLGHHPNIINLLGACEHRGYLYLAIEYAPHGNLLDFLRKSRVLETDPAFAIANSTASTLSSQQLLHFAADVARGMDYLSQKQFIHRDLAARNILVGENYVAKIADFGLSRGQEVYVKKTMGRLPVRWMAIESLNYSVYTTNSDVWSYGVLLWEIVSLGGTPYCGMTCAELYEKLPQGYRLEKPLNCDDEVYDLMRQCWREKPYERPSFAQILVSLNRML
T3 sequence (P35968 834-1162 limits assumed, species assumed): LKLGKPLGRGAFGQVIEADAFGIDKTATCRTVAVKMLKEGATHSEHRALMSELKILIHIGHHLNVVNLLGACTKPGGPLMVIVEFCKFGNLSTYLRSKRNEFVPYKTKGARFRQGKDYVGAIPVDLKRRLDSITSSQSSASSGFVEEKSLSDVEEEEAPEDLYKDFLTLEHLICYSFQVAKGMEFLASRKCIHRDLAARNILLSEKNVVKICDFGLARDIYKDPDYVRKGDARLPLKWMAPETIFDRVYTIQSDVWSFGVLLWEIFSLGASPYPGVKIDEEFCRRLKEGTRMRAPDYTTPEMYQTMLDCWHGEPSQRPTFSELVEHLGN

## O=C1Nc2ccc3ncccc3c2/C1=C/Nc1ccc(Cc2ccncc2)cc1 [Example 30, 1-{(Z)-[4-(4-Pyridinylmethyl)anilino]methylidene}-1,3-dihydro-2H-pyrrolo[3,2-f]quinolin-2-one]
[1]
  IC50: 1100 to 5000 nM
[2]
  IC50: 11 to 50 nM
[3]; [7]
  IC50: > 100 nM
[4]; [8]
  IC50: 11 to 50 nM
[5]
  IC50: > 100 nM
[6]
  IC50: 10 to 500 nM

## CCC1(c2ccc(N/C=C3\C(=O)Nc4ccc5ncccc5c43)cc2)CCC(=O)NC1=O (stereo not drawn) [Example 63, 3-Ethyl-3-(4-{(Z)-[(2-oxo-2,3dihydro-1H-pyrrolo[3,2-f]quinolin-1-ylidene)methyl]amino}phenyl)-2,6-piperidinedione]
[1]
  IC50: 600 to 1000 nM
[3]; [7]
  IC50: > 100 nM
[4]; [8]
  IC50: 1 to 10 nM
[6]
  IC50: 10 to 500 nM

## CCN(CC)CCS(=O)(=O)c1ccc(N/C=C2\C(=O)Nc3ccc4ncsc4c32)cc1 [Example 71, 8-[(Z)-(4-{[2-(Diethylamino)ethyl]sulfonyl}anilino)methylidene]-6H-[1,3]thiazolo[5,4-e]indol-7-one]
[1]
  IC50: 10 to 500 nM
[3]; [7]
  IC50: > 100 nM
[4]; [8]
  IC50: 11 to 50 nM
[6]
  IC50: 10 to 500 nM

## CCN(CC)CCS(=O)(=O)c1ccc(N/C=C2\C(=O)Nc3ccc4ncccc4c32)cc1 [Example 72, 1-[(Z)-(4-{[2-(Diethylamino)ethyl]sulfonyl}anilino)methylidene]-1H-pyrrolo[3,2-f]quinolin-2(3H)-one]
[1]
  IC50: 10 to 500 nM
[3]
  IC50: > 100 nM
[4]
  IC50: 1 to 10 nM
[6]
  IC50: 10 to 500 nM

## Cc1cc(=O)[nH]n1-c1ccc(N/C=C2\C(=O)Nc3ccc4ncsc4c32)cc1 [Example 55, 8-{(Z)-[4-(5-Methyl-3-oxo-2,3-dihydro-1H-pyrazol-1-yl)anilino]methylidene}-6H-[1,3]thiazolo[5,4-e]indol-7-one]
[1]
  IC50: > 5000 nM
[2]
  IC50: 11 to 50 nM
[3]; [7]
  IC50: > 100 nM
[4]; [8]
  IC50: 1 to 10 nM
[5]
  IC50: > 100 nM
[6]
  IC50: 1100 to 5000 nM

## CC(=O)N(C)c1ccc(N/C=C2\C(=O)Nc3ccc4ncsc4c32)cc1 [Example 58, N-Methyl-N-(4-{(Z)-[(7-oxo-6,7-dihydro-8H-[1,3]thiazolo[5,4-e]indol-8-ylidene)methyl]amino}phenyl)acetamide]
[1]
  IC50: 1100 to 5000 nM
[3]; [7]
  IC50: > 100 nM
[4]; [8]
  IC50: 11 to 50 nM
[6]
  IC50: 10 to 500 nM

## O=C1Nc2ccc3ncccc3c2/C1=C/Nc1ccc(N2CCOCC2)cc1 [Example 29, 1-{(Z)-[4-(4-Morpholinyl)anilino]methylidene}-1,3-dihydro-2H-pyrrolo[3,2-f]quinolin-2-one]
[1]
  IC50: > 5000 nM
[2]
  IC50: > 100 nM
[3]; [7]
  IC50: > 100 nM
[4]; [8]
  IC50: 11 to 50 nM
[5]
  IC50: > 100 nM
[6]
  IC50: 10 to 500 nM

## CCC1(c2ccc(N/C=C3\C(=O)Nc4ccc5ncsc5c43)cc2)CCC(=O)NC1=O (stereo not drawn) [Example 48, 3-Ethyl-3-(4-{(Z)-[(7-oxo-6,7dihydro-8H-[1,3]thiazolo[5,4-e]indol-8-ylidene)methyl]amino}phenyl)-2,6-piperidinedione]
[1]
  IC50: 600 to 1000 nM
[3]; [7]
  IC50: > 100 nM
[4]; [8]
  IC50: 1 to 10 nM
[5]
  IC50: > 100 nM
[6]
  IC50: 10 to 500 nM

## NC(=O)c1ccc(N/C=C2\C(=O)Nc3ccc4ncsc4c32)cc1 [Example 24, 4-{[(Z)-(7-Oxo-6,7-dihydro-8H-[1,3]thiazolo[5,4-e]indol-8-ylidene)methyl]amino}benzamide]
[1]
  IC50: > 5000 nM
[2]
  IC50: 51 to 100 nM
[3]; [7]
  IC50: > 100 nM
[4]
  IC50: 11 to 50 nM
[5]
  IC50: > 100 nM
[6]
  IC50: 10 to 500 nM

## Cc1cc(=O)[nH]n1-c1ccc(N/C=C2\C(=O)Nc3ccc4ncccc4c32)cc1 [Example 66, 1-{(Z)-[4-(5-Methyl-3-oxo-2,3-dihydro-1H-pyrazol-1-yl)anilino]methylidene}-1H-pyrrolo[3,2-f]quinolin-2(3H)-one]
[1]
  IC50: > 5000 nM
[3]; [7]
  IC50: > 100 nM
[4]; [8]
  IC50: 1 to 10 nM
[6]
  IC50: 600 to 1000 nM

## O=C1Nc2ccc3ncccc3c2/C1=C/Nc1ccc(CCO)cc1 [Example 32, 1-{(Z)-[4-(2-Hydroxyethyl)anilino]methylidene}-1,3-dihydro-2H-pyrrolo[3,2-f]quinolin-2-one]
[1]
  IC50: 1100 to 5000 nM
[2]
  IC50: 51 to 100 nM
[3]; [7]
  IC50: > 100 nM
[4]; [8]
  IC50: 11 to 50 nM
[6]
  IC50: 10 to 500 nM
